Experimental data: patent US7919493B2, “Anititumoral ecteinascidin derivatives” (Pharma Mar, S.A., priority 2001, dated 2011)

Experiments:
Type in all cases: cell-based
[1] = system: MEL-28 (monolayer culture of a human melanoma); assay: Cytotoxic activity screening, MEL-28 cells; conditions: Homo sapiens, SK-MEL-28, 72 h, three days of incubation, Crystal Violet, approximate IC50
Protocol: (§1) Cell Cultures. Cells were maintained in logarithmic phase of growth in Eagle's Minimum Essential Medium, with Earle's Balanced Salts, with 2.0 mM L-glutamine, with non-essential amino acids, without sodium bicarbonate (EMEM/neaa); supplemented with 10% Fetal Calf Serum (FCS), 10^−2 M sodium bicarbonate and 0.1 g/l penicillin-G+streptomycin sulfate.
(§2) A simple screening procedure has been carried out to determine and compare the antitumour activity of these compounds, using an adapted form of the method described by Bergeron et al (1984). The tumour cell line employed have been P-388 (suspension culture of a lymphoid neoplasm from DBA/2 mouse), A-549 (monolayer culture of a human lung carcinoma), HT-29 (monolayer culture of a human colon carcinoma) and MEL-28 (monolayer culture of a human melanoma).
(§3) A-549, HT-29 and MEL-28 were seeded into 16 mm wells at 2×10^4 cells per well in 1 ml aliquots of MEM 10FCS containing the indicated concentration of drug. A separate set of cultures without drug was seeded as control growth to ensure that cells remained in exponential phase of growth. All determinations were carried out in duplicate. After three days of incubation at 37° C., 10% CO2 in a 98% humid atmosphere, the wells were stained with 0.1% Crystal Violet. An approximately IC50 was determined by comparing the growth in wells with drug to the growth in wells control.

[2] = system: A-549 (monolayer culture of a human lung carcinoma); assay: Cytotoxic activity screening, A-549 cells; conditions: Homo sapiens, A549, 72 h, three days of incubation, Crystal Violet, approximate IC50
Protocol: as §1
as §3, with “A” for “A-549, HT-29 and MEL-28 were seeded into 16 mm wells at 2×10^4 cells per well in 1 ml aliquots of MEM 10FCS containing the indicated concentration of drug. A”

[3] = system: P-388 (suspension culture of a lymphoid neoplasm from DBA/2 mouse); assay: Cytotoxic activity screening, P-388 cells; conditions: Mus musculus, P388, 72 h, three days of incubation, approximate IC50 vs control growth
Protocol: as §1, §2
P-388 cell were seeded into 16 mm wells at 1×10^4 cells per well in 1 ml aliquots of MEM 5FCS containing the indicated concentration of drug. A separate set of cultures without drug was seeded as control growth to ensure that cells remained in exponential phase of growth. All determinations were carried out in duplicate.

[4] = system: HT-29 (monolayer culture of a human colon carcinoma); assay: Cytotoxic activity screening, HT-29 cells; conditions: Homo sapiens, HT-29, 72 h, three days of incubation, Crystal Violet, approximate IC50
Protocol: as §1
as §3, with “A” for “A-549, HT-29 and MEL-28 were seeded into 16 mm wells at 2×10^4 cells per well in 1 ml aliquots of MEM 10FCS containing the indicated concentration of drug. A”

DU-145 = assay: Cytotoxic activity screening, DU-145 cells; conditions: Homo sapiens, DU-145, DU-145 cells
Protocol: [The source words this procedure for another cell line and reports this cell line under the same test.] as §1, §2
Examples of biological activities of the compounds described in the present application are in Table IV (IC50 (ng/mL)) on the following pages.

Measured: IC50

COc1c(C)cc2c(c1O)[C@@H]1C3[C@@H]4SC[C@H](NC(=O)C(NC(=O)/C=C/c5ccccc5)C(C)C)C(=O)OC[C@@H](c5c6c(c(C)c(OC(C)=O)c54)OCO6)N3[C@@H](C#N)[C@H](C2)N1C (stereo partly drawn) [Compound 3r]
1 ng/mL: all assays above

COc1c(C)cc2c(c1O)[C@@H]1C3[C@@H]4SC[C@H](NC(=O)C(NC(=O)C(C)N)C(C)C)C(=O)OC[C@@H](c5c6c(c(C)c(OC(C)=O)c54)OCO6)N3[C@@H](C#N)[C@H](C2)N1C (stereo partly drawn) [Compound 3s]
1 ng/mL: all assays above

COc1c(C)cc2c(c1O)[C@@H]1C3[C@@H]4SC[C@H](NC(=O)C(NC(=O)C(C)NC(C)=O)C(C)C)C(=O)OC[C@@H](c5c6c(c(C)c(OC(C)=O)c54)OCO6)N3[C@@H](C#N)[C@H](C2)N1C (stereo partly drawn) [Compound 3t]
10 ng/mL: all assays above

COc1c(C)cc2c(c1O)[C@@H]1C3[C@@H]4SC[C@H](NC(=O)C(NC(=O)C(C)NC(=O)/C=C/c5ccccc5)C(C)C)C(=O)OC[C@@H](c5c6c(c(C)c(OC(C)=O)c54)OCO6)N3[C@@H](C#N)[C@H](C2)N1C (stereo partly drawn) [Compound 3u]
5 ng/mL: [2] | [3]
1 ng/mL: all other assays above

COc1c(C)cc2c(c1O)[C@@H]1C3[C@@H]4SC[C@H](NC(=O)C(C)N)C(=O)OC[C@@H](c5c6c(c(C)c(OC(C)=O)c54)OCO6)N3[C@@H](C#N)[C@H](C2)N1C (stereo partly drawn) [Compound 3v]
1 ng/mL: all assays above

COc1c(C)cc2c(c1O)[C@@H]1C3[C@@H]4SC[C@H](NC(=O)C(C)NC(C)=O)C(=O)OC[C@@H](c5c6c(c(C)c(OC(C)=O)c54)OCO6)N3[C@@H](C#N)[C@H](C2)N1C (stereo partly drawn) [Compound 3w]
1 ng/mL: all assays above

COc1c(C)cc2c(c1O)[C@@H]1C3[C@@H]4SC[C@H](NC(=O)C(C)NC(=O)/C=C/c5ccccc5)C(=O)OC[C@@H](c5c6c(c(C)c(OC(C)=O)c54)OCO6)N3[C@@H](C#N)[C@H](C2)N1C (stereo partly drawn) [Compound 3x]
0.1 ng/mL: all assays above

COc1c(C)cc2c(c1O)[C@@H]1C3[C@@H]4SC[C@@H](NC(C)=O)C(=O)OC[C@@H](c5c6c(c(C)c(OC(C)=O)c54)OCO6)N3[C@@H](O)[C@H](C2)N1C (stereo partly drawn) [Compound 4a]
0.5 ng/mL: [1] | [2]
0.1 ng/mL: all other assays above

CCCC(=O)N[C@H]1CS[C@@H]2c3c(OC(C)=O)c(C)c4c(c3[C@H](COC1=O)N1C2[C@H]2c3c(cc(C)c(OC)c3O)C[C@@H]([C@@H]1O)N2C)OCO4 (stereo partly drawn) [Compound 4c]
0.1 ng/mL: all assays above

COc1c(C)cc2c(c1O)[C@@H]1C3[C@@H]4SC[C@H](NC(=O)CC(C)C)C(=O)OC[C@@H](c5c6c(c(C)c(OC(C)=O)c54)OCO6)N3[C@@H](O)[C@H](C2)N1C (stereo partly drawn) [Compound 4d]
0.5 ng/mL: all assays above

CCCCCCCC(=O)N[C@H]1CS[C@@H]2c3c(OC(C)=O)c(C)c4c(c3[C@H](COC1=O)N1C2[C@H]2c3c(cc(C)c(OC)c3O)C[C@@H]([C@@H]1O)N2C)OCO4 (stereo partly drawn) [Compound 4e]
1 ng/mL: all assays above

CCCCCCCCCCCCCCCC(=O)N[C@H]1CS[C@@H]2c3c(OC(C)=O)c(C)c4c(c3[C@H](COC1=O)N1C2[C@H]2c3c(cc(C)c(OC)c3O)C[C@@H]([C@@H]1O)N2C)OCO4 (stereo partly drawn) [Compound 4f]
100 ng/mL: all assays above

COc1c(C)cc2c(c1O)[C@@H]1C3[C@@H]4SC[C@H](NC(=O)c5ccccc5)C(=O)OC[C@@H](c5c6c(c(C)c(OC(C)=O)c54)OCO6)N3[C@@H](O)[C@H](C2)N1C (stereo partly drawn) [Compound 4g]
0.1 ng/mL: [3]
0.5 ng/mL: all other assays above

COc1c(C)cc2c(c1O)[C@@H]1C3[C@@H]4SC[C@H](NC(=O)/C=C/c5ccc(C(F)(F)F)cc5)C(=O)OC[C@@H](c5c6c(c(C)c(OC(C)=O)c54)OCO6)N3[C@@H](O)[C@H](C2)N1C (stereo partly drawn) [Compound 4i]
1 ng/mL: all assays above

COc1c(C)cc2c(c1O)[C@@H]1C3[C@@H]4SC[C@H](NC(=O)CCCCC5SCC6NC(=O)NC65)C(=O)OC[C@@H](c5c6c(c(C)c(OC(C)=O)c54)OCO6)N3[C@@H](O)[C@H](C2)N1C (stereo partly drawn) [Compound 4k]
10 ng/mL: all assays above

COc1c(C)cc2c(c1O)[C@@H]1C3[C@@H]4SC[C@H](NC(=O)CCC(=O)O)C(=O)OC[C@@H](c5c6c(c(C)c(OC(C)=O)c54)OCO6)N3[C@@H](O)[C@H](C2)N1C (stereo partly drawn) [Compound 4l]
100 ng/mL: all assays above

COc1c(C)cc2c(c1O)[C@@H]1C3[C@@H]4SCC(NCc5ccccc5)C(=O)OC[C@@H](c5c6c(c(C)c(OC(C)=O)c54)OCO6)N3[C@@H](O)[C@H](C2)N1C (stereo partly drawn) [Compound 4n]
0.5 ng/mL: all assays above

COc1c(C)cc2c(c1O)[C@@H]1C3[C@@H]4SCC(NC(=O)C(N)C(C)C)C(=O)OC[C@@H](c5c6c(c(C)c(OC(C)=O)c54)OCO6)N3[C@@H](O)[C@H](C2)N1C (stereo partly drawn) [Compound 4p]
0.5 ng/mL: all assays above

COc1c(C)cc2c(c1O)[C@@H]1C3[C@@H]4SC[C@H](NC(=O)C(NC(C)=O)C(C)C)C(=O)OC[C@@H](c5c6c(c(C)c(OC(C)=O)c54)OCO6)N3[C@@H](O)[C@H](C2)N1C (stereo partly drawn) [Compound 4q]
1 ng/mL: all assays above

COc1c(C)cc2c(c1O)[C@@H]1C3[C@@H]4SC[C@H](NC(=O)C(NC(=O)/C=C/c5ccccc5)C(C)C)C(=O)OC[C@@H](c5c6c(c(C)c(OC(C)=O)c54)OCO6)N3[C@@H](O)[C@H](C2)N1C (stereo partly drawn) [Compound 4r]
0.5 ng/mL: all assays above

COc1c(C)cc2c(c1O)[C@@H]1C3[C@@H]4SC[C@H](NC(=O)C(NC(=O)C(C)N)C(C)C)C(=O)OC[C@@H](c5c6c(c(C)c(OC(C)=O)c54)OCO6)N3[C@@H](O)[C@H](C2)N1C (stereo partly drawn) [Compound 4s]
1 ng/mL: all assays above

COc1c(C)cc2c(c1O)[C@@H]1C3[C@@H]4SC[C@H](NC(=O)C(NC(=O)C(C)NC(C)=O)C(C)C)C(=O)OC[C@@H](c5c6c(c(C)c(OC(C)=O)c54)OCO6)N3[C@@H](O)[C@H](C2)N1C (stereo partly drawn) [Compound 4t]
100 ng/mL: [2] | [3]
10 ng/mL: all other assays above

COc1c(C)cc2c(c1O)[C@@H]1C3[C@@H]4SC[C@H](NC(=O)C(NC(=O)C(C)NC(=O)/C=C/c5ccccc5)C(C)C)C(=O)OC[C@@H](c5c6c(c(C)c(OC(C)=O)c54)OCO6)N3[C@@H](O)[C@H](C2)N1C (stereo partly drawn) [Compound 4u]
5 ng/mL: all assays above

COc1c(C)cc2c(c1O)[C@@H]1C3[C@@H]4SC[C@H](NC(=O)C(C)N)C(=O)OC[C@@H](c5c6c(c(C)c(OC(C)=O)c54)OCO6)N3[C@@H](O)[C@H](C2)N1C (stereo partly drawn) [Compound 4v]
1 ng/mL: all assays above
